Here are results for 7 compounds from ChEMBL document CHEMBL1152752, “Chemical components and its antioxidant properties in vitro: an edible marine brown alga, Ecklonia cava” (Bioorg Med Chem, 2009).

The source made the active and inactive calls. The calls are words filed in the database; no cut-off is given here.

Data set [1] has as its system Radical scavenging activity. Kind of data set: Antioxidant activity assessed as DPPH radical scavenging activity. In kind it is functional.
In data set [2] the test system is MRC5. Kind of data set: Cytotoxicity against human MRC5 cells at 100 uM after 24 hrs by MTT assay. In kind it is cell-based. Conditions: mrc5, 24 h.
Data set [3] in a line: Antioxidant activity assessed as […] generated peroxyl radical scavenging formation by ESR spectrometer. Format: functional.
Data set [4] has as its system RAW264.7. Kind of data set: Antioxidant activity against mouse RAW264.7 cells assessed as reduction of ROS production at 1 uM after 200 mins measured by fluorescent dichlorofluorescein using DCFH-DA substrate. Format: functional, cell-based.
Data set [5] deals with RAW264.7. Kind of data set: Antioxidant activity against mouse RAW264.7 cells assessed as reduction of ROS production at 50 uM after 210 mins measured by fluorescent dichlorofluorescein using DCFH-DA substrate. In kind it is functional. Also on record: scale not given: the % may be the effect or the level left.
Data set [6] relates to RAW264.7. Briefly: Increase in intracellular GSH level in mouse RAW264.7 cells assessed as monobromobimane-GSH fluorescence intensity at 20 uM after 120 mins. Format: functional, cell-based.
The target of data set [7] is T1, Myeloperoxidase (Homo sapiens) (UniProt P05164).
T1 sequence (whole entry): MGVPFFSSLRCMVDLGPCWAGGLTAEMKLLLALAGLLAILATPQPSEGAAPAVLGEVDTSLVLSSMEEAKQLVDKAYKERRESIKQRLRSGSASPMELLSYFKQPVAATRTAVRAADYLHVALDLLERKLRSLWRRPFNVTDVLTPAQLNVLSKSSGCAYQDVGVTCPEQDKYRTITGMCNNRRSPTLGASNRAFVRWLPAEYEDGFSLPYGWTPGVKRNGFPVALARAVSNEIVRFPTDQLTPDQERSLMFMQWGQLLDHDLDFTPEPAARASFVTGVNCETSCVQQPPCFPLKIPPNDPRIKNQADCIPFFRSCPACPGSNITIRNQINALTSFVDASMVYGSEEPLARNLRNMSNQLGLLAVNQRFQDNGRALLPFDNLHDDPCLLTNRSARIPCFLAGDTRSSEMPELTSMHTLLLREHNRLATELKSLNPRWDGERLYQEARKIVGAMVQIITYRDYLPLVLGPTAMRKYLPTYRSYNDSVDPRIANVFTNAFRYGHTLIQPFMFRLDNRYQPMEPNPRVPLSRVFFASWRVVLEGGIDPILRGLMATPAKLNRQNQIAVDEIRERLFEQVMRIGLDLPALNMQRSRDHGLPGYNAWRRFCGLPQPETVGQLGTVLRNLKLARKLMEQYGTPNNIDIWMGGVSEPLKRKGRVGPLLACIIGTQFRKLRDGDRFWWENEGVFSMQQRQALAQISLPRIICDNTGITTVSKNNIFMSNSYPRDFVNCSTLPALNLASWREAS
Briefly: Inhibition of MPO activity in TNF-alpha-stimulated human HL60 cells measured enzyme activity per 10^6 cells by spectrophotometrically. Conditions: HL-60. In kind it is cell-based.

Data set [8] addresses T1, Myeloperoxidase (Homo sapiens). Kind of data set: Inhibition of MPO activity in TNF-alpha-stimulated human HL60 cells measured enzyme activity per 10^6 cells at 10 uM by spectrophotometrically. Format: cell-based. Conditions: HL-60.
For data set [9], the system named is RAW264.7. Briefly: Antioxidant activity against mouse RAW264.7 cells assessed as reduction of ROS production measured by fluorescent dichlorofluorescein using DCFH-DA substrate. In kind it is functional, cell-based.
The test system of data set [10] is HL-60. Kind of data set: Cytotoxicity against human HL60 cells at 100 uM after 24 hrs by MTT assay. In kind it is functional, cell-based.
Data set [11] is described as follows: Antioxidant activity assessed as Fenton system generated hydroxyl radical scavenging activity by ESR spectrometer. In kind it is functional.
In data set [12] the test system is RAW264.7. Kind of data set: Antioxidant activity against mouse RAW264.7 cells assessed as reduction of ROS production after 200 mins measured by fluorescent dichlorofluorescein using DCFH-DA substrate. Format: functional, cell-based. The following applies: TDE = time-dependent effect.
For data set [13], the system named is RAW264.7. Kind of data set: Inhibition of Fe(2+)/H2O2-generated hydroxyl radical induced membrane protein oxidation in mouse RAW264.7 cells at 1 uM to 50 uM relative to control. Format: functional.
In data set [14] the target is T1, Myeloperoxidase (Homo sapiens). Kind of data set: Inhibition of MPO activity in TNF-alpha-stimulated human HL60 cells measured enzyme activity per 10^6 cells at 50 uM by spectrophotometrically. Format: cell-based. The following applies: HL-60.
Data set [15] concerns RAW264.7. Kind of data set: Cytotoxicity against mouse RAW264.7 cells at 100 uM after 24 hrs by MTT assay. In kind it is functional, cell-based.
The test system of data set [16] is RAW264.7. Briefly: Antioxidant activity against mouse RAW264.7 cells assessed as reduction of ROS production at 50 uM after 200 mins measured by fluorescent dichlorofluorescein using DCFH-DA substrate. In kind it is functional, cell-based.
Data set [17] can be described thus: Antioxidant activity assessed as superoxide radical scavenging activity. In kind it is functional.

Regarding `Oc1cc(O)cc(Oc2c(O)cc(O)c3c2Oc2c(O)cc(Oc4c(O)cc(Oc5c(O)cc(O)c6c5Oc5c(O)cc(O)cc5O6)cc4O)cc2O3)c1` [DIECKOL], the IC50 turned out to be 8.28 µM in data set [1], 14.5 µM in data set [3], 28.6 µM in data set [11] and 16.2 µM in data set [17]. Further, the Activity result was “Non-toxic” in data set [2]; 84.27% in data set [5]; “Dose-dependent effect” in data set [7]; 0.51 IU in data set [8]; “Dose-dependent effect” in [9]; “tde” in data set [12]. In data set [14], this compound yielded an Activity of 0.45 IU. Also, the outcome in data set [4], in [6] and in data set [16] was Active. Moreover, the outcome in data set [10] and in data set [15] was inactive. Moreover, the “inhibition (INH)” value in [13] is on record as 70.5%.

As to `Oc1cc(O)cc(Oc2c(O)cc(O)c3c2Oc2c(O)cc(O)cc2O3)c1` [ECKOL], the half-inhibitory concentration (IC50) was determined as 22.9 µM in data set [1], 28.4 µM in [3], 51.8 µM in [11] and 26.5 µM in data set [17]. For the same compound, the Activity entry in [2] is “Non-toxic”. The outcome in [10] and in data set [15] was inactive.

Consider `Oc1cc(O)c(Oc2cc(O)cc(O)c2Oc2cc(O)cc(O)c2-c2c(O)cc(O)cc2O)c(O)c1` [FUCODIPHLOROETHOL G], for which the IC50 in [1] was 14.7 µM; in data set [3] it was 18.1 µM; in [11], 33.5 µM; in [17] it was 18.6 µM. The Activity result in data set [2] was “Non-toxic”; in data set [5], 75.6%; in data set [9], “Dose-dependent effect”; in data set [12] it was “tde”. Further, the outcome in data set [6] and in [16] was Active. The outcome in data set [10] and in data set [15] was inactive.

Consider `Oc1cc(O)cc(Oc2c(O)cc(O)c3c2Oc2c(O)cc4oc5c(Oc6cc(O)cc(O)c6)c(O)cc(O)c5c4c2O3)c1` [PHLOROFUCOFUROECKOL A], for which the IC50 is 17.7 µM in [1], 21.4 µM in data set [3], 39.2 µM in [11] and 21.6 µM in data set [17]. Also, the Activity entry in data set [2] was “Non-toxic”; in data set [9], “Dose-dependent effect”; in data set [12] it was “tde”. Moreover, the outcome in [10] and in data set [15] was inactive. Besides, the outcome in data set [13] was Active.

For the compound `Oc1cc(O)cc(Oc2c(O)cc(O)c3c2Oc2c(O)cc(O)c(-c4c(O)cc(O)c5c4Oc4c(O)cc(O)c(Oc6cc(O)cc(O)c6)c4O5)c2O3)c1`, the IC50 in data set [1] came out at 8.69 µM; in data set [3], 17.1 µM; in [11], 29.7 µM; in data set [17] it was 15.9 µM. The Activity entry is “Non-toxic” in data set [2]; 83.58% in data set [5]; “Dose-dependent effect” in data set [7]; 0.53 IU in data set [8]; “Dose-dependent effect” in data set [9]; “tde” in data set [12]. Also, the Activity in data set [14] was determined as 0.47 IU. Moreover, the result in [4], in [6] and in [16] was Active. Further, the outcome in data set [10] and in [15] was inactive. Moreover, the “inhibition (INH)” value in data set [13] was determined as 67.3%.

`Oc1cc(O)cc(Oc2c(O)cc(O)c3c2Oc2c(O)cc(Oc4c(O)cc(O)cc4O)cc2O3)c1`: the 50% inhibitory concentration (IC50) in [1] amounted to 18.6 µM; in data set [3], 22.7 µM; in data set [11] it was 39.6 µM; in [17], 21.9 µM. In addition, the Activity entry in data set [2] is “Non-toxic”; in [9], “Dose-dependent effect”; in data set [12], “tde”. In addition, the result in data set [10] and in data set [15] was inactive. Also, in data set [13], the outcome was Active.

Turning to `Oc1cc(O)cc(O)c1` [PHLOROGLUCINOL], in [2], the Activity result is given as “Non-toxic”. Also, the IC50 came to 129 µM in [3], 392 µM in [11] and 115 µM in data set [17]. Also, the outcome in data set [10] and in data set [15] was inactive.
